# Test results taken from patent US20260085073A1, “PYRAZOLYLCARBOXAMIDE COMPOUNDS AND THEIR USE IN THERAPY” (Hotspot Therapeutics, Inc., priority 2022, published 2026).
# Molecular target: T1, MALT1 (Homo sapiens, UniProt Q9UDY8)
# T1 construct: Avi-tagged FL MALT-1 (Pharmaron, stored at −70° C.); Avi-tag
# T1 sequence (Q9UDY8 1-824): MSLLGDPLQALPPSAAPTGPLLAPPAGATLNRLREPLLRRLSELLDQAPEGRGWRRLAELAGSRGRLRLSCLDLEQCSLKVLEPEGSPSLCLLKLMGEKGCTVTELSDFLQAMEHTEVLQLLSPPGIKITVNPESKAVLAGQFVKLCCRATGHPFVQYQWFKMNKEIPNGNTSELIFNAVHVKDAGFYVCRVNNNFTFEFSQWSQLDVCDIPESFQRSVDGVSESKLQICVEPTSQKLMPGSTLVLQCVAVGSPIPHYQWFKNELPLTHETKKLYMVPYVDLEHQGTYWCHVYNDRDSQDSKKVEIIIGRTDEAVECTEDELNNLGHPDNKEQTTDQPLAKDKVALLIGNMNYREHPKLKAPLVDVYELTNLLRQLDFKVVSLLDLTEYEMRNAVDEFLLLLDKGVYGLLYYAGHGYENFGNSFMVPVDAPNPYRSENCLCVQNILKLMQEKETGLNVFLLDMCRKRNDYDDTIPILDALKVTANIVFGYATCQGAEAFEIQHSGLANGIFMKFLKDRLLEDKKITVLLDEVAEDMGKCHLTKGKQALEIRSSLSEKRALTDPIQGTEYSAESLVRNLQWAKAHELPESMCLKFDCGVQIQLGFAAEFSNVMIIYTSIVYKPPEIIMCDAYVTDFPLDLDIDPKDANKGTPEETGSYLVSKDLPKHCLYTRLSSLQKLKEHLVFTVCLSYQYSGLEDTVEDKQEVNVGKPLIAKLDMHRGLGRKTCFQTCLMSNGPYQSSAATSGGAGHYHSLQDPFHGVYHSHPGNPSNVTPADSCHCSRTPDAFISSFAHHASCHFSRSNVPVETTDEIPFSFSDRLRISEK
# Experiment: MALT1 inhibition assay (MALT-1 Fluorogenic Peptide Cleavage Assay, Ac-LRSR-AMC substrate)
# Type: biochemical
# Conditions: Avi-tagged FL MALT-1, 30 min pre-incubation, 90 min reaction at room temperature, fluorescence intensity
# Protocol: Example 71—MALT1 Inhibition Assay
# Compounds were tested for ability to bind to MALT1.
# Inhibition of MALT1 activity by the presence of small molecules was evaluated using MALT-1 Fluorogenic Peptide Cleavage Assay. The assay utilizes a quenched AMC-labelled peptide that contains the MALT-1 recognition sequence and cleavage site (LRSR). MALT-1 mediated cleavage of the peptide relieves the quenching and leads to an increase in fluorescence at excitation (342 nm) and emission (441 nm).
# The following reagents were obtained commercially and used to prepare standard reagent formulations as further described below: N-2-hydroxyethylpiperazine-N-2-ethane sulfonic acid (HEPES) (1 M, pH 7.5, stored at 4° C.), sodium citrate (stored at RT), tris(2-carboxyethyl) phosphine hydrochloride (T-CEP) (500 mM, stored at −20° C.), ethylenediaminetetraacetic acid (EDTA) (500 mM, stored at RT), dimethylsulfoxide (DMSO, stored at RT), 3-[(3-cholamidopropyl)dimethylammonio]-1-propane sulphate (CHAPS) (stored at RT), dimethylsulfoxide (DMSO), DMSO (Fisher Scientific, stored at RT), Avi-tagged FL MALT-1 (Pharmaron, stored at −70° C.), Ac-LRSR-AMC Peptide (SM Biochemicals, stored at −20° C.), and ultrapure water (MILLI-QR).
# The standard reagent formulations used in this assay were prepared and stored as follows. A 1.1 M solution of sodium citrate (161.3 g, 500 mL) was prepared and stored at room temperature. A 10% (w/v) CHAPS solution (2.0 g, 20 mL) was prepared and stored at 4° C. A 500 mM HEPES solution having pH of 6.89 was prepared from 200 mL of a 1 M HEPES solution having a pH of 7.5 using concentrated hydrochloric acid and brought to a final volume of 400 mL with MILLI-QR H2O. The substrate, 10 mM Ac-LRSR-AMC Peptide, was prepared (10 mg, 1.370 mL DMSO) and stored at −20° C.
# Compounds were plated to provide a 2% DMSO final concentration using a ProxiPlate-384 Plus F Black 384-shallow well microplate. The assay-ready plates were equilibrated to room temperature. A reaction buffer (30 mL total volume) was prepared by combining HEPES (pH 6.89, 25 mM, 1.5 mL), sodium citrate (660 mM, 18.0 mL), T-CEP (1 mM, 0.06 mL), EDTA ([…], 0.06 mL), CHAPS (0.05%, 0.15 mL), DMSO (2%, 0.6 mL), and MILLI-QR H2O (10.23 mL; 9.63 mL when backfilled to 2% DMSO) followed by thorough mixing. DMSO was added only when compound plates had not been DMSO-backfilled to 2%.
# MALT-1 was thawed and kept on ice. Peptide substrate was thawed on the bench under ambient conditions. A MALT-1 enzyme working stock was prepared from Avi-tagged FL MALT-1 (40 nM in a prepared reagent volume of 16.5 μL) and the reaction buffer (13.0 mL). MALT1 working stock (5 μL) was added to each well of the microplate. MALT-1 was pre-incubated with compounds for 30 minutes at room temperature.
# Two substrate working stocks (Km and 10×Km) were prepared. The 1×Km substrate was prepared from Ac-LRSR-AMC Peptide (50 μM in a prepared reagent volume of 35.0 μL) and the reaction buffer (6.965 mL). The 10×Km substrate was prepared from Ac-LRSR-AMC Peptide (280 μM in a prepared reagent volume of 196.0 μL) and the reaction buffer (6.804 mL). The reaction was initiated by the addition of substrate working stock (5 μL, 50 μM) to Km plates and the addition of substrate working stock (5 μL 280 μM) to 10×Km plates. The plates were covered and incubated on the bench at room temperature for 90 minutes.
# Fluorescence intensity was determined using a CLARIOstar microplate reader (BMG LABTECH) using the optimised AMC mode. Before taking readings, a 70% gain was applied on the neutral control well. Compound data were normalised to % Inhibition and used to plot sigmoidal concentration response curves to yield various parameters including IC50.
row,SMILES,IC50
1,Cn1nc(-c2cccn3nccc23)c(C(F)(F)F)c1C(=O)Nc1ccnc(C(F)(F)F)c1 [Compound I-87],< 0.5 µM
2,COc1ccccc1-c1nn(C)c(C(=O)Nc2ccnc(C(F)(F)F)c2)c1C(F)(F)F [Compound I-88],< 0.5 µM
3,Cn1nc(-c2cccc(Cl)c2Cl)c(C(F)(F)F)c1C(=O)Nc1ccnc(C(F)(F)F)c1 [Compound I-89],0.5 to 2.5 µM
4,Cn1nc(-c2csc3ncccc23)c(C(F)(F)F)c1C(=O)Nc1ccnc(C(F)(F)F)c1 [Compound I-90],0.5 to 2.5 µM
5,Cn1nc(-c2cccc3c2CCO3)c(C(F)(F)F)c1C(=O)Nc1ccnc(C(F)(F)F)c1 [Compound I-91],0.5 to 2.5 µM
6,Cn1nc(-c2csc3ccccc23)c(C(F)(F)F)c1C(=O)Nc1ccnc(C(F)(F)F)c1 [Compound I-92],< 0.5 µM
7,Cn1nc(-c2cc(OC3COC3)ccc2Cl)c(C(F)(F)F)c1C(=O)Nc1ccnc(C(F)(F)F)c1 [Compound I-93],0.5 to 2.5 µM
8,Cn1nc(-c2cccc3c2COC3)c(C(F)(F)F)c1C(=O)Nc1ccnc(C(F)(F)F)c1 [Compound I-95],0.5 to 2.5 µM
9,Cn1nc(-c2cccc3scnc23)c(C(F)(F)F)c1C(=O)Nc1ccnc(C(F)(F)F)c1 [Compound I-96],< 0.5 µM
10,Cn1nc(-c2cccc3[nH]ccc23)c(C(F)(F)F)c1C(=O)Nc1ccnc(C(F)(F)F)c1 [Compound I-97],0.5 to 2.5 µM
11,CN1Cc2c(cccc2-c2nn(C)c(C(=O)Nc3ccnc(C(F)(F)F)c3)c2C(F)(F)F)C1=O [Compound I-98],> 10 µM
12,Cn1nc(-c2cccc3ccsc23)c(C(F)(F)F)c1C(=O)Nc1ccnc(C(F)(F)F)c1 [Compound I-99],< 0.5 µM
13,CC(=O)Nc1cc(-c2nn(C)c(C(=O)Nc3ccnc(C(F)(F)F)c3)c2C(F)(F)F)ccn1 [Compound I-100],> 10 µM
14,Cc1csc2c(-c3nn(C)c(C(=O)Nc4ccnc(C(F)(F)F)c4)c3C(F)(F)F)cccc12 [Compound I-101],0.5 to 2.5 µM
15,Cn1nc(-c2cccn3nnnc23)c(C(F)(F)F)c1C(=O)Nc1ccnc(C(F)(F)F)c1 [Compound I-102],2.5 to 10 µM
16,Cn1cc(-c2nn(C)c(C(=O)Nc3ccnc(C(F)(F)F)c3)c2C(F)(F)F)c(C2CC2)n1 [Compound I-103],2.5 to 10 µM
17,COc1cc(-c2nn(C)c(C(=O)Nc3ccnc(C(F)(F)F)c3)c2C(F)(F)F)c2scnc2c1 [Compound I-104],> 10 µM
18,"Cn1nc(-c2nccc3ccccc23)c(C(F)(F)F)c1C(=O)Nc1ccnc(C(F)(F)F)c1 [Compound I-105, 3-(isoquinolin-1-yl)-1-methyl-4-(trifluoromethyl)-N-(2-(trifluoromethyl)pyridin-4-yl)-1H-pyrazole-5-carboxamide]",0.5 to 2.5 µM
19,Cn1nc(-c2nccc3ccoc23)c(C(F)(F)F)c1C(=O)Nc1ccnc(C(F)(F)F)c1 [Compound I-106],< 0.5 µM
20,Cn1nc(-c2nccc3ncsc23)c(C(F)(F)F)c1C(=O)Nc1ccnc(C(F)(F)F)c1 [Compound I-107],> 10 µM
21,COCCn1cc(-c2nn(C)c(C(=O)Nc3ccnc(C(F)(F)F)c3)c2C(F)(F)F)c2ccncc21 [Compound I-108],> 10 µM
22,Cn1nc(-c2cccc3nnsc23)c(C(F)(F)F)c1C(=O)Nc1ccnc(C(F)(F)F)c1 [Compound I-109],> 10 µM
23,Cn1nc(-c2ccnc3c(F)cccc23)c(C(F)(F)F)c1C(=O)Nc1ccnc(C(F)(F)F)c1 [Compound I-110],0.5 to 2.5 µM
24,Cn1nc(-c2nccn3ccnc23)c(C(F)(F)F)c1C(=O)Nc1ccnc(C(F)(F)F)c1 [Compound I-111],0.5 to 2.5 µM
25,Cn1nc(-c2cn(C)c3c(=O)[nH]ccc23)c(C(F)(F)F)c1C(=O)Nc1ccnc(C(F)(F)F)c1 [Compound I-112],2.5 to 10 µM

# Other lines, results leading:
row,IC50,SMILES
1,0.5 to 2.5 µM,Cn1nc(-c2csc3c(=O)[nH]ccc23)c(C(F)(F)F)c1C(=O)Nc1ccnc(C(F)(F)F)c1 [Compound I-113]
2,0.5 to 2.5 µM,Cn1nc(-c2cncc3ccn(C)c23)c(C(F)(F)F)c1C(=O)Nc1ccnc(C(F)(F)F)c1 [Compound I-114]
3,2.5 to 10 µM,Cn1nc(-c2cncc3cc[nH]c23)c(C(F)(F)F)c1C(=O)Nc1ccnc(C(F)(F)F)c1 [Compound I-115]
4,0.5 to 2.5 µM,Cn1nc(-c2cccc3c(=O)[nH]ncc23)c(C(F)(F)F)c1C(=O)Nc1ccnc(C(F)(F)F)c1 [Compound I-116]
5,0.5 to 2.5 µM,Cn1nc(-c2cccc3nc(N)sc23)c(C(F)(F)F)c1C(=O)Nc1ccnc(C(F)(F)F)c1 [Compound I-117]
6,2.5 to 10 µM,Cn1nc(-c2cccc3nncn23)c(C(F)(F)F)c1C(=O)Nc1ccnc(C(F)(F)F)c1 [Compound I-118]
7,2.5 to 10 µM,Cn1nc(-c2cncc3nccn23)c(C(F)(F)F)c1C(=O)Nc1ccnc(C(F)(F)F)c1 [Compound I-119]
8,< 0.5 µM,"Cn1nc(-c2csc3cnccc23)c(C(F)(F)F)c1C(=O)Nc1cnc(-n2nccn2)c(C(F)(F)F)c1 [Compound I-120, N-(6-(2H-1,2,3-triazol-2-yl)-5-(trifluoromethyl)pyridin-3-yl)-1-methyl-3-(thieno[2,3-c]pyridin-3-yl)-4-(trifluoromethyl)-1H-pyrazole-5-carboxamide]"
9,< 0.5 µM,Cn1nc(-c2cccc3ncccc23)c(C(F)(F)F)c1C(=O)Nc1cnc(-n2nccn2)c(C(F)F)c1 [Compound I-121]
10,< 0.5 µM,Cn1nc(-c2cccc3ncccc23)c(C(F)(F)F)c1C(=O)Nc1cnc(-n2nccn2)c(C(F)(F)F)c1 [Compound I-122]
11,> 10 µM,Cn1nc(-c2cccc3ncn(C4CC4)c23)cc1C(=O)Nc1ccnc(C(F)(F)F)c1 [Compound I-123]
12,0.5 to 2.5 µM,Cn1nc(-c2c[nH]c3cnccc23)c(C(F)(F)F)c1C(=O)Nc1ccnc(C(F)(F)F)c1 [Compound I-124]
13,< 0.5 µM,Cn1nc(-c2cccc3ncsc23)c(C(F)(F)F)c1C(=O)Nc1cnc(-n2nccn2)c(C(F)(F)F)c1 [Compound I-125]
14,< 0.5 µM,Cn1nc(-c2cccc3ncsc23)c(C(F)(F)F)c1C(=O)Nc1cnc(-n2nccn2)c(Cl)c1 [Compound I-126]
15,< 0.5 µM,Cn1nc(-c2cccc3ccoc23)c(C(F)(F)F)c1C(=O)Nc1cnc(-n2nccn2)c(C(F)(F)F)c1 [Compound I-127]
